Measured values taken from patent US20220257557A1, “PHARMACEUTICAL COMPOSITION FOR PREVENTING OR TREATING NEUROLOGICAL DISEASES” (GLACEUM INC., priority 2019, published 2022).

Legend:
[1] = target: T1, rePON1 (PON1, paraoxonase 1) (Homo sapiens, UniProt P27169); assay: Prevention of inhibition of PON1 activity by oxidized linolenic acid (TBBL substrate); assay type: biochemical; conditions: for activity at 30 µM: 30 μM compound with rePON1 30 min, then oxidized linolenic acid 2 h, TBBL substrate, normal control 100, negative control 73.64; for extent to which inhibition of rePON1 activity was prevented, compared with glabridin: compound 30 μM vs glabridin 30 μM; for extent to which inhibition of rePON1 activity was prevented, compared with glabridin / inhibition of rePON1 activity by oxidized linolenic acid: result in words; for inhibition of rePON1 activity by oxidized linolenic acid: compound 30 μM
T1 construct: purchased Thermo Corp. RP-75678
T1 sequence (P27169 whole entry): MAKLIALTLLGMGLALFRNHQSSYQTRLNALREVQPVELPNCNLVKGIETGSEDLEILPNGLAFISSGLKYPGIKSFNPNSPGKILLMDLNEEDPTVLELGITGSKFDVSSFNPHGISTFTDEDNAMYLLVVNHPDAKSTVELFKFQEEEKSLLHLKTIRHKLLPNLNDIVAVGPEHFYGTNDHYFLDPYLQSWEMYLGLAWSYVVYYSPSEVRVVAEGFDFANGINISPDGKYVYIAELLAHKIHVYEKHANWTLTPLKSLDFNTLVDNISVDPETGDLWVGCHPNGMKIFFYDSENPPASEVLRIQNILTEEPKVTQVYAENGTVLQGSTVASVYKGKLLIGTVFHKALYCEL
Procedure: Based on the fact that the activity of PON1 is inhibited when PON1 is treated with oxidized linolenic acid, an experiment was conducted to confirm the prevention of inhibition of PON1 activity. The activity of PON1 was measured using TBBL (5-thiobutyl butyrolactones) as a substrate.
Specifically, after 9.6 μl of 50 mM Tris-HCl containing 1 mM CaCl2 was added to each of […] Eppendorf tubes, 0.2 μl of each of the compounds of Formulas III-1, IV-1, V-1, IV-2, V-2, II-1, IV-3, V-3, III-2, IV-4, V-4, II-2 and III-3 and glabridine was added to each tube so that the concentration thereof was 30 μM. 0.2 μl of rePON1 (RP-75678, Thermo Corp.) was added to each of the 12 tubes and mixed. Thereafter, each of the mixtures was allowed to react at room temperature for 30 minutes, and 0.5 μl of 1 mM oxidized linolenic acid (OX-LA) dissolved in DMSO was added thereto in order to inhibit rePON1 activity, followed by reaction at room temperature for 2 hours, thus preparing solutions (I).
25 μl of 0.5 mM DTNB dissolved in 50 mM Tris-HCl containing 1 mM CaCl2 was dispensed into each well of a 384-well plate, and then 10 μl of each of the solutions (I) was dispensed into each well, and 20 μl of 2 mM TBBL dissolved in 50 mM Tris-HCl containing 1 mM CaCl2 was added to each well, thus preparing samples. The absorbance of each of the samples at 420 nm was measured using a spectrometer (SpectraMax M2) at 37° C. every 2 minutes for 1 hour.
In addition, a negative control was prepared in the same manner as the above-described method, except that, for the preparation of a solution, 0.2 μl of DMSO was added instead of the compounds of Formulas III-1, IV-1, V-1, IV-2, V-2, II-1, IV-3, V-3, III-2, IV-4, V-4, II-2 and III-3 and glabridin. Furthermore, a normal control was prepared in the same manner as the above-described method, except that, for the preparation of a solution, 0.2 μl of DMSO was added instead of the above-described compounds and glabridin and that oxidized linolenic acid was not added. The absorbance of each of the negative control and the normal control was measured.
Using SoftMax Pro software, the activity of PON1 was calculated from the absorbance using the following Equation 1, and the results are shown in Table 1 below.
Activity=(absorbancesample−absorbanceblank)/(absorbancePON1−absorbanceblank)*100 [Equation 1]

RAW264.7 cells [2] = assay: Transcription of NF-κB protein (p65, p50) into nucleus after LPS (Western blot); assay type: cell-based; conditions: 3 h pretreatment (Table 3 amounts), LPS 1 μg/ml 1 h
Procedure: RAW264.7 cells or BV2 cells (5×10^5 cells/well) were dispensed in DMEM containing 10% heat-inactivated FBS, 10 IU/mL penicillin G, 100 μg/mL streptomycin and 2 mM L-glutamine and cultured in a 5% CO2 incubator at a temperature of 37° C. […]
(§1) The pretreated cells of Experimental Example 4-1 were treated with 1 μg/ml of LPS for 1 hour, and then the level of transcription of NF-κB protein into the nucleus of each of p65 and p50 was analyzed through Western blot.

RAW264.7 cells [3] = assay: IL-1β, IL-6 and TNF-α mRNA expression after LPS (RT-PCR); assay type: cell-based; conditions: 3 h pretreatment (Table 3 amounts), LPS 1 μg/ml 6 h
Procedure: (§2) RAW264.7 cells or BV2 cells (5×10^5 cells/well) were dispensed in DMEM containing 10% heat-inactivated FBS, 10 IU/mL penicillin G, 100 μg/mL streptomycin and 2 mM L-glutamine and cultured in a 5% CO2 incubator at a temperature of 37° C.
(§3) The compound of Formula III-3, III-4, V-3, III-1, IV-1, V-1, IV-2, V-2 or II-2 was added to the RAW264.7 cells or BV2 cells, and the toxicities of the compounds were determined by MTT assay.
(§4) The pretreated cells of Experimental Example 4-1 were treated with 1 μg/ml of LPS for 6 hours, and then the mRNA expression level of the cytokine IL-1β, IL-6 or TNF-α produced in the inflammatory response was analyzed using RT-PCR.

BV2 cells [4] = assay: as above; assay type: cell-based; conditions: 3 h pretreatment (Table 3 amounts), LPS 1 μg/ml 6 h
Procedure: as §2, §3, §4

RAW264.7 cells [5] = assay: NO and PGE2 production after LPS; assay type: cell-based; conditions: 3 h pretreatment (Table 3 amounts), LPS 1 μg/ml 24 h
Procedure: as §2, §3
(§5) The pretreated cells of Experimental Example 4-1 were treated with 1 μg/ml of LPS for 24 hours, and then the expression levels of iNOS and COX-2 were observed through Western blot, and the production of NO and PGE2 was measured.

BV2 cells [6] = assay: NO and PGE2 production after LPS; assay type: cell-based; conditions: 3 h pretreatment (Table 3 amounts), LPS 1 μg/ml 24 h
Procedure: as §2, §3, §5

BV2 cells [7] = assay: Transcription of NF-κB protein (p65, p50) into nucleus after LPS (Western blot); assay type: cell-based; conditions: 3 h pretreatment (Table 3 amounts), LPS 1 μg/ml 1 h
Procedure: as §2, §3, §1

RAW264.7 cells [8] = assay: iNOS and COX-2 expression after LPS (Western blot); assay type: cell-based; conditions: 3 h pretreatment (Table 3 amounts), LPS 1 μg/ml 24 h
Procedure: as §2, §3, §5

BV2 cells [9] = assay: iNOS and COX-2 expression after LPS (Western blot); assay type: cell-based; conditions: 3 h pretreatment (Table 3 amounts), LPS 1 μg/ml 24 h
Procedure: as §2, §3, §5

SMILES	activity at 30 µM [1] [%]	extent to which inhibition of rePON1 activity was prevented, compared with glabridin [1]	inhibition of rePON1 activity by oxidized linolenic acid [1]	level of transcription of NF-κB protein into the nucleus, p50 (RAW264.7 cells [2])	level of transcription of NF-κB protein into the nucleus, p65 (RAW264.7 cells [2])	mRNA expression level of IL-1β (RAW264.7 cells [3])	mRNA expression level of IL-6 (RAW264.7 cells [3])	mRNA expression level of TNF-α (RAW264.7 cells [3])	mRNA expression level of IL-1β (BV2 cells [4])	mRNA expression level of IL-6 (BV2 cells [4])	mRNA expression level of TNF-α (BV2 cells [4])	production of NO (RAW264.7 cells [5])	production of PGE2 (RAW264.7 cells [5])	production of NO (BV2 cells [6])	production of PGE2 (BV2 cells [6])	level of transcription of NF-κB protein into the nucleus, p50 (BV2 cells [7])	level of transcription of NF-κB protein into the nucleus, p65 (BV2 cells [7])	expression level of COX-2 (RAW264.7 cells [8])	expression level of iNOS (RAW264.7 cells [8])	expression level of COX-2 (BV2 cells [9])	further results
CC1(C)C=Cc2c(ccc3c2OCC(c2ccc(O)cc2O)=C3)O1 [Formula II-1, 4-(8,8-dimethyl-2,8-dihydropyrano[2,3-f]chromen-3-yl)benzene-1,3-diol]	85.9	greater	prevented	–	–	–	–	–	–	–	–	–	–	–	–	–	–	–	–	–	–
CCCOc1ccc(C2=Cc3ccc4c(c3OC2)C=CC(C)(C)O4)c(O)c1 [Formula II-2, 2-(8,8-dimethyl-2,8-dihydropyrano[2,3-f]chromen-3-yl)-5-propoxyphenol]	–	greater	prevented	concentration-dependently decreased	concentration-dependently decreased	concentration-dependently decreased	concentration-dependently decreased	concentration-dependently decreased	concentration-dependently decreased	concentration-dependently decreased	concentration-dependently decreased	concentration-dependently decreased	concentration-dependently decreased	concentration-dependently decreased	concentration-dependently decreased	concentration-dependently decreased	concentration-dependently decreased	concentration-dependently decreased	concentration-dependently decreased	concentration-dependently decreased	expression level of iNOS (BV2 cells [9]): concentration-dependently decreased
CCOc1cc(O)ccc1C1COc2c(ccc3c2CCC(C)(C)O3)C1 (stereo not shown) [Formula III-2, 4-(8,8-dimethyl-2,3,4,8,9,10-hexahydropyrano[2,3-f]chromen-3-yl)-3-ethoxyphenol]	83.8	greater	prevented	–	–	–	–	–	–	–	–	–	–	–	–	–	–	–	–	–	–
CCc1ccc(C2COc3c(ccc4c3CCC(C)(C)O4)C2)c(O)c1 (stereo not shown) [Formula III-3, 2-(8,8-dimethyl-2,3,4,8,9,10-hexahydropyrano[2,3-f]chromen-3-yl)-5-ethylphenol]	–	greater	prevented	concentration-dependently decreased	concentration-dependently decreased	concentration-dependently decreased	concentration-dependently decreased	concentration-dependently decreased	concentration-dependently decreased	concentration-dependently decreased	concentration-dependently decreased	concentration-dependently decreased	concentration-dependently decreased	concentration-dependently decreased	concentration-dependently decreased	concentration-dependently decreased	concentration-dependently decreased	concentration-dependently decreased	concentration-dependently decreased	concentration-dependently decreased	expression level of iNOS (BV2 cells [9]): concentration-dependently decreased
CCCc1ccc(C2COc3c(ccc4c3CCC(C)(C)O4)C2)c(O)c1 (stereo not shown) [Formula III-4, 2-(8,8-dimethyl-2,3,4,8,9,10-hexahydropyrano[2,3-f]chromen-3-yl)-5-propylphenol]	–	–	–	concentration-dependently decreased	concentration-dependently decreased	concentration-dependently decreased	concentration-dependently decreased	concentration-dependently decreased	concentration-dependently decreased	concentration-dependently decreased	concentration-dependently decreased	concentration-dependently decreased	concentration-dependently decreased	concentration-dependently decreased	concentration-dependently decreased	concentration-dependently decreased	concentration-dependently decreased	concentration-dependently decreased	concentration-dependently decreased	concentration-dependently decreased	expression level of iNOS (BV2 cells [9]): concentration-dependently decreased
CCCc1ccc([C@@H]2COc3c(ccc4c3CCC(C)(C)O4)C2)c(O)c1 [Formula IV-3, (R)-2-(8,8-dimethyl-2,3,4,8,9,10-hexahydropyrano[2,3-f]chromen-3-yl)-5-propylphenol]	90.6	greater	prevented	–	–	–	–	–	–	–	–	–	–	–	–	–	–	–	–	–	–
CCCCOc1ccc([C@@H]2COc3c(ccc4c3CCC(C)(C)O4)C2)c(O)c1 [Formula IV-4, (R)-2-(8,8-dimethyl-2,3,4,8,9,10-hexahydropyrano[2,3-f]chromen-3-yl)-5-butoxyphenol]	94.1	greater	prevented	–	–	–	–	–	–	–	–	–	–	–	–	–	–	–	–	–	–
CCCCOc1ccc([C@H]2COc3c(ccc4c3CCC(C)(C)O4)C2)c(O)c1 [Formula V-4, (S)-2-(8,8-dimethyl-2,3,4,8,9,10-hexahydropyrano[2,3-f]chromen-3-yl)-5-butoxyphenol]	94.9	greater	prevented	–	–	–	–	–	–	–	–	–	–	–	–	–	–	–	–	–	–
